Measured values: ChEMBL document CHEMBL2406941, “Discovery of 'molecular switches' within a GIRK activator scaffold that afford selective GIRK inhibitors” (Bioorg Med Chem Lett, 2013)

Assay: Activation of GIRK (unknown origin)
Parameters: species or system Homo sapiens

EC50: > 100 µM
Compound: C[C@@H]1O[C@@H](O[C@H]2[C@H](Oc3cc(O)c4c(c3)O[C@H](c3ccc(O)cc3)CC4=O)O[C@H](CO)[C@@H](O)[C@@H]2O)[C@H](O)[C@H](O)[C@H]1O [NARINGIN]
